Assays:
[1] = tested on: sAPPα; assay: sAPPα ELISA, NT2 cells stably expressing APP751; assay type: cell-based, human; settings: 24 h
Protocol: (§1) (5). To confirm the effect of THPI-244 on sAPPα levels in a neuronal cell line and by a tertiary assay, we exposed human Neuron-committed Teratocarcinoma cell line (NT2) stably expressing human APP751 to different concentrations of THPI-244 for 24 h and compared with that of Bryostatin, a classical activator of PKC known to stimulate sAPPα release. […] Levels of sAPPα were measured by ELISA using commercially available kit (cat #27734, IBL-America, Minneapolis, Minn., USA). […] Similar biphasic effect of Bryostatin was confirmed for Aβ42 also, measured again in NT2 stable cells by ELISA (cat #KHB3441, Life Technologies, Grand Island, N.Y., USA). Consistent with sAPPα, THPI-244 decreased Aβ42 levels dose-dependently starting from 50 nM (28%, p<0.05) to 2000 nM (64%, p<0.001) (n=4 independent experiments) (FIG. 1.7). Thus THPI-244 increased non-amyloidogenic processing of APP in NT2 cells.

[2] = tested on: Aβ42; assay: Aβ42 ELISA, NT2 stable cells; assay type: cell-based, human
Protocol: as §1

[3] = tested on: sAPPα; assay: sAPPα ELISA, fibroblasts derived from AD patients; assay type: cell-based, human; settings: 24 h
Protocol: (1). […] Therefore, we first used fibroblasts derived from AD patients (AG06263C, Coriell Cell repository, supported by NINDS/NIH) and exposed to THPI-244 for 24 h and measured sAPPα release by ELISA as done above for NT2 cells. […] We also confirmed dose-dependent effect of THPI-244 on sAPPα levels in human primary neurons transiently transfected with APP751 with Swedish mutation which is trafficked differently from WT APP and releases more sAPPα. Human neurons were grown on specially coated glass coverslips (cat #GG-18-PDL, NeuVitro, Germany). We could reproducibly achieve nearly 30% transfection efficiency using a nanoparticle based transfection reagent called Neuromag (cat #NM150299, OZ Biosciences, France).

[4] = tested on: soluble APPα, soluble APPβ, Aβ; assay: APP processing blots after SAHA, 7WD10 cells; assay type: cell-based
Protocol: (§2) Western blot sAPPα release assay. 7WD10 cells were grown in 6-well plates and treated with test compounds and SAHA (vorinostat) at several concentrations in duplicate wells. After 24 h of drug exposure, the conditioned media (CM) was collected, centrifuged to remove cell debris and subjected to SDS-PAGE electrophoresis. sAPPα (6E10, mouse IgG from IBL America ltd) was detected using indicated antibody. To detect APP-FL holoprotein and C-terminal fragments (CTFs, CT15 antibody), the cells were lysed using lysis buffer (1% NP40) with complete protease inhibitor mix (Sigma) supplemented with sodium vanadate and microcystine. Samples were subjected to SDS-PAGE, transferred and immunoblotted with indicated antibodies and detected by enhanced chemiluminescence method. Quantification of Western blot signals was done using ImageJ software.
We utilized a commercially available AlphaLISA detection kit to develop an HTS assay for identification of compounds that increase sAPPα production in CHO cells stably expressing APP751 (7WD10 cells) (FIG. 2.1B). There are several cell lines that have been used extensively in Alzheimer's disease research. […] We have analyzed both 7WD10 and NT2 cells for expression of the hallmark proteins of Alzheimer's disease: soluble APPα, soluble APPβ, Arβ, and membrane-bound full length APP (APP-FL). […]

[5] = tested on: soluble APPα, soluble APPβ, Aβ; assay: APP processing blots after SAHA, NT2 cells; assay type: cell-based, human
Source text: We utilized a commercially available AlphaLISA detection kit to develop an HTS assay for identification of compounds that increase sAPPα production in CHO cells stably expressing APP751 (7WD10 cells) (FIG. 2.1B). There are several cell lines that have been used extensively in Alzheimer's disease research. For example, NT2 cells are highly used in AD basic and drug discovery research because they are derived from a human embryonal carcinoma cell line and they can be differentiated into post-mitotic neuron-like cells that develop functional dendrites and axons resembling primary neurons of the human brain [39]. NT2 cells also synthesize amyloid precursor protein important in Alzheimer's disease. However, the rate of growth of NT2 cells is much slower than rate of growth of 7WD10s cells, which makes them less HTS-amenable. We have analyzed both 7WD10 and NT2 cells for expression of the hallmark proteins of Alzheimer's disease: soluble APPα, soluble APPβ, Arβ, and membrane-bound full length APP (APP-FL). […] Since it was shown that broad HDAC inhibition results in a decrease of AR and an increase of soluble APPα [41] we tested both cell lines for the effect of application of SAHA (suberoylanilide hydroxamic acid or vorinostat), a pan-HDAC inhibitor [42].

[6] = tested on: sAPPα in supernatants of 7WD10 cells; assay: Western blot sAPPα release assay, 7WD10 cells; assay type: cell-based; settings: 10 nM, 7WD10 supernatant
Protocol: (2). To ascertain that hits identified as a result of AlphaLISA assay are not due to artifacts of the detection system, the sAPPα levels were measured by Western blots as a secondary assay downstream of primary HTS to confirm hits or discard artifacts of the AlphaLISA assay. The assay was performed using a range of concentrations of hit compounds (10-5,000 nM). A hit compound named thiazole piperazine #244 (THPI-244) and THPI-326 induced dose-dependent increase of sAPPα in supernatants of 7WD10 cells (FIG. 1.3). […] Since compound THPI-244 increased sAPPα levels more than THPI-326, we focused on THPI-244 for further validation.
as §2, with “To detect APP-FL holoprotein and C-terminal fragments (CTFs, CT15 antibody), the cells were lysed using lysis buffer (1% NP40) with complete protease inhibitor mix (Sigma) supplemented with sodium vanadate and microcystine.” left out

[7] = tested on: sAPPα released from 7WD10 cells (CHO cells stably expressing APP751); assay: AlphaLISA sAPPα release assay (pilot HTS); assay type: cell-based
Protocol: (1). The pilot screen was performed using five 384 well plates. […] FDA approved oncology set was screened at 10 μM final assay concentration, while thiazole derivatives were screened at 5 μM. Seven hits from thiazole derivatives were identified using Ave+3SD rule (45) as a nominal cutoff for hit determination (FIG. 1.1 (bottom)). The hits represented a novel piperazine thiazole chemotype (FIG. 1.2).
Pilot screen of AlphaLISA sAPPα release assay. 8 μL of assay media (DMEM supplemented with 10% FBS and 1× Penicillin/Streptomycin) containing 20,000 cells were added to all wells of the assay plate, except column 1 where only media was added. Plates were incubated for 4 h at 37° C., 5% CO2, 95% RH after which 80 nL of test compounds in DMSO or DMSO alone were added to respective wells using a pin tool device (VP Scientific, San Diego). After 24 h of incubation at 37° C., 5% CO2, 95% RH, sAPPα AlphaLISA beads were added in 10 μL of buffer, equilibrated for 1 h, and AlphaLISA signal was measured using a Biotek H4 Synergy microplate reader (Biotek Inc). Three parameters were calculated on a per-plate basis: (a) the signal-to-background ratio (S/B); (b) the coefficient for variation [CV; CV=(standard deviation/mean)×100)] for all compound test wells; and (c) the Z′-factor [31]. Nominally active compounds from the pilot screen were determined using mean plus 3 times the standard deviation (Mean+3SD) was used as the cut-off.
In the absence of known pharmacological agents capable of inducing an increase of sAPPα release, we tested a small molecule (FIG. 2.4A insert, compound 1 in [2]) shown to decrease Aβ release. It was shown that decrease of Aβ release could be accompanied by the increase of soluble APPα, which has a neuroprotective effect. Compound 1 was tested using 20,000 cells/well in the range of 1.2-100 μM using 3-fold serial dilutions and 24 h incubation as an assay endpoint. Increase of sAPPα release was observed only in wells where 100 μM of compound 1 was added either with or without FBS (FIG. 2.4A). Viability of cells was also tested in the presence of 1.2-100 μM of compound 1 to ascertain that the increase of sAPPα release is not due to excessive cell death. Consistent with the above described results, cells were less viable in the absence of FBS. In the presence of 1.2-33 μM of compound 1, cells were approximately 10% less viable than untreated control either with or without FBS (FIG. 2.4B).
To evaluate the ability of the assay to identify compounds that increase the release of sAPPα a pilot screen was conducted using FDA approved oncology set (n=101) and TPIMS heterocycles library (n=700). The pilot screen was performed using five 384 well plates. […]

[8] = molecular target: TrkA (Homo sapiens, UniProt P04629); assay: Table of THPI-244 analogs: TrkA increase
[9] = tested on: human sAPPα; assay: sAPPα release ELISA, 7WD10 cells; assay type: cell-based; settings: 24 h
Protocol: Starting from p-methylbenzhydrylamine hydrochloride (MBHA.HCl) resin; we developed different approaches toward the diversity oriented solid-phase parallel synthesis of different aminothiazole compounds 1-6 (Scheme 1) (Micheals, H A et al., 2014, ACS Comb. Sci. 16, 1-4; Nefzi, A et al., 2010, J. Org. Chem. 75, 7939-7941). 575 thiazole compounds were synthesized and were tested for sAPPα increasing activity using CHO cells stably expressing APP751wt. For initial screenings we used a cell-based human sAPPα ELISA kit (cat #27734, IBL Co., ltd, Japan) following instructions from the manufacturer. The method involves sandwich ELISA and use of two specific antibodies and tetra methyl benzidine as a coloring agent. […]
sAPPα and Aβ40 release ELISA assay. […] The principle of the method is based on the use of tetra methyl benzidine (TMB) as a chromogen and the strength of the generated color is proportional to the quantities of human sAPPα. […] Plates were incubated with chromogen solution for 30 minutes, and read at 450 nm after adding stop solution. Levels of Aβ40 in the CM treated with different concentrations of compound 1 as detailed above were measured by sandwich ELISA exactly as described previously. Aβ40 was captured with Ab9 antibody (epitope, 1-16 of Aβ40) and detected with horseradish peroxidase-conjugated Ab13.1.1 antibody (epitope, 35-40 of Aβ40).

Sequence of TrkA (P04629 33-796, species assumed): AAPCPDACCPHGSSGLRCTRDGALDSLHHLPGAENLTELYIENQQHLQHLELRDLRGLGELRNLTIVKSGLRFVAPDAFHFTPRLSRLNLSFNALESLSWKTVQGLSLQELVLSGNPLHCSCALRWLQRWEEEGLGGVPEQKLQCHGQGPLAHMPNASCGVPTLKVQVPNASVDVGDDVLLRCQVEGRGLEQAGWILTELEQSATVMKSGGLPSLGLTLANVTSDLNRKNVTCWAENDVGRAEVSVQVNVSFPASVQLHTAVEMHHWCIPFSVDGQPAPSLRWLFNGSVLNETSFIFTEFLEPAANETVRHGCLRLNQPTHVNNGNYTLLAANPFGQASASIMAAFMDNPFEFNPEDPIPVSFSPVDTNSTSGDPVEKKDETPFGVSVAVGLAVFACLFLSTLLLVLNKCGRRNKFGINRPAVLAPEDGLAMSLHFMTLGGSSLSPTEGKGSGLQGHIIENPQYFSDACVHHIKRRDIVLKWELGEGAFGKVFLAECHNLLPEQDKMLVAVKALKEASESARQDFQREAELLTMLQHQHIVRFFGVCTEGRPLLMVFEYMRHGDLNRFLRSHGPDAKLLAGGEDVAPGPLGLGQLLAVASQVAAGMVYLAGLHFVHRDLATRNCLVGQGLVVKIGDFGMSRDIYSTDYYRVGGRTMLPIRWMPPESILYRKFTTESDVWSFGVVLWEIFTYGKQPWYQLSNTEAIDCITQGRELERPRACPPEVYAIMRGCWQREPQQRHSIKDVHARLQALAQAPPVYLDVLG

For `CCC/C=C/C=C/C(=O)O[C@H]1/C(=C/C(=O)OC)C[C@H]2C[C@H]([C@@H](C)O)OC(=O)C[C@H](O)C[C@@H]3C[C@H](OC(C)=O)C(C)(C)[C@](O)(C[C@@H]4C/C(=C/C(=O)OC)C[C@H](/C=C/C(C)(C)[C@]1(O)O2)O4)O3` [Bryostatin, reference compound], the “effect on sAPPα release” value [1] was “increased sAPPα at low nM concentrations, but then decreased levels dose-dependently”, the “lowest concentration with significant increase of sAPPα” value [1] was 10 nM and the “lowest concentration with significant decrease of Aβ42” value [2] was 10 nM. The “lowest concentration with significant increase of sAPPα” value [3] was 10 nM.

With `O=C(CCCCCCC(=O)Nc1ccccc1)NO` [SAHA, suberoylanilide hydroxamic acid] the “change of Aβ” value [4] was “decrease” and the “change of Aβ” value [5] was “decrease”.

`CCC(C)C(=O)N1CCN(Cc2csc(NC[C@H](Cc3ccc(O)cc3)NC(=O)Cc3ccccc3)n2)CC1` (stereo partly drawn) [THPI-326] was tested, and the “increase of sAPPα over untreated control cells (Western blot)” value [6] was 2 fold and the “increase of Alpha signal (sAPPα release)” value ([7]; 5 μM, 7WD10 cells, 24 h) was roughly 2 fold.

`Cc1cnc(C(=O)N[C@H](CNc2nc(CN3CCNCC3)cs2)c2ccccc2)cn1` [TPI-2336-55] was tested, and the “% TrkA ⬆” value [8] was 69%.

In the case of `c1ccc(CCNc2nc(CN3CCOCC3)cs2)cc1` [TPI-2336-99], the “% TrkA ⬆” value [8] was 51%.

In the case of `c1ccc(CCNc2nc(CN3CCCCC3)cs2)cc1` [TPI-2336-100], the “% TrkA ⬆” value [8] was 54%.

For `O=C(NCCSCc1cccc(Cl)c1)c1c(Cl)cccc1Cl` [compound 1, 2,6-dichloro-N-{2-[(3-chlorobenzyl)thio]ethyl}benzamide, reference compound], the “increase of sAPPα over untreated control cells (ELISA)” value ([9]; 100 μM) was 2 fold, the “maximal increase of sAPPα (ELISA)” value ([9]; 150 μM) was 3 fold and the “increase of AlphaLISA signal” value ([7]; 100 μM compound 1) was 2 fold. The “concentration at which increase of sAPPα release was observed” value ([7]; range 1.2-100 μM, 24 h, with or without FBS) was 100 µM.

Source: patent US9994536B2, “Compounds and methods of treating neurological disorders” (TORREY PINES INSTITUTE FOR MOLECULAR STUDIES, priority 2014, dated 2018)
